IC50 data for seven compounds are collected here from US9902733B2, “Furopyridines as inhibitors of protein kinases” (MASARYKOVA UNIVERZITA, priority 2014, dated 2018).

Each structure is given as a SMILES string.

Holding throughout (type): biochemical
The target of experiment [1] is T1, HIPK2(h) (Homo sapiens, UniProt Q9H2X6).
T1 construct: purchased Merck Millipore (KinaseProfiler service)
The experiment in a line: HIPK2 KinaseProfiler radiometric protein kinase assay. Conditions: 10 μM ATP, 40 minutes at room temperature. Here is the method: (§1) In vitro essays were performed by the company Merck Millipore in their KinaseProfiler radiometric protein kinase assay as paid commercial service. The compounds IC50 values for inhibition of individual protein kinases were determined. Dose-response curves were plotted from inhibition data generated, each in duplicate, from 10 point serial dilutions of inhibitory compounds. Concentration of compound was plotted against % kinase activity. To generate IC50 values, the dose-response curves were fitted to a standard sigmoidal curve and IC50 values were derived by standard nonlinear regression analysis.
(§2) All tested compounds were prepared in 100% DMSO to final assay concentrations either 0.5 mM (for the concentration row A, see below) or 0.05 mM (for the concentration row B). This working stock of the compound was added to the assay well as the first component in the reaction, followed by the remaining components as detailed below. The stock solution was added to the individual assay wells in such amounts that the concentrations of the compound were either in the row A (0.001 μM, 0.003 μM, 0.01 μM, 0.03 μM, 0.1 μM, 0.3 μM, 1.0 μM, 3.0 μM, and 10.0 μM) or in the row B (0.0001 μM, 0.0003 μM, 0.001 μM, 0.003 μM, 0.01 μM, 0.03 μM, 0.1 μM, 0.3 μM, and 1.0 μM). There was no pre-incubation step between the compound and the kinase prior to initiation of the reaction.
(§3) The positive control wells contained all components of the reaction, except the compound of interest; however, DMSO (at a final concentration of 2%) was included in these wells to control for solvent effects. The blank wells contained all components of the reaction, with staurosporine as a reference inhibitor replacing the compound of interest. This abolished kinase activity and established the base-line (0% kinase activity remaining).
HIPK2(h) was diluted in the buffer (20 mM MOPS, 1 mM EDTA, 0.01% Brij-35, 5% Glycerol, 0.1% β-mercaptoethanol, 1 mg/mL BSAs) to the concentration of 1.01 mg/mL prior to addition to the reaction mix.
(§4) The above stock solution of HIPK2(h) was added to a mixture containing 8 mM MOPS pH 7.0, 0.2 mM EDTA, and 0.33 mg/mL myelin basic protein in such amount that the resulting concentration of HIPK2(h) was 1.4 nM. This mixture was added to the stock solution of the tested compound. The reaction was initiated by the addition of the MgATP mix in such amount that the resulting concentration of Mg acetate in the reaction mixture was 10 mM and [γ-^33P-ATP] (specific activity approx. 500 cpm/pmol) was 10 μM. After incubation for 40 minutes at room temperature, the reaction was stopped by the addition of 3% phosphoric acid solution. 10 μL of the reaction was then spotted onto a P30 filtermat and washed three times for 5 minutes in 75 mM phosphoric acid and once in methanol prior to drying and scintillation counting.

The target in experiment [2] is T2, HIPK3(h) (Homo sapiens, UniProt Q9H422).
T2 construct: purchased Merck Millipore (KinaseProfiler service)
The experiment can be described thus: HIPK3 KinaseProfiler radiometric protein kinase assay. To be noted: 15 μM ATP, 40 minutes at room temperature. Here is the method:
as §1, §2, §3
HIPK3(h) was diluted in the buffer (20 mM MOPS, 1 mM EDTA, 0.01% Brij-35, 5% Glycerol, 0.1% β-mercaptoethanol, 1 mg/mL BSAs) to the concentration of 1.01 mg/mL prior to addition to the reaction mix.
(§5) The above stock solution of HIPK3(h) was added to a mixture containing 8 mM MOPS pH 7.0, 0.2 mM EDTA, and 1.0 mg/mL myelin basic protein in such amount that the resulting concentration of HIPK3(h) was 6.4 nM. This mixture was added to the stock solution of the tested compound. The reaction was initiated by the addition of the MgATP mix in such amount that the resulting concentration of Mg acetate in the reaction mixture was 10 mM and [γ-^33P-ATP] (specific activity approx. 500 cpm/pmol) was 15 μM. After incubation for 40 minutes at room temperature, the reaction was stopped by the addition of 3% phosphoric acid solution. […]

Experiment [3] concerns the target T3, CLK2 (h) (Homo sapiens, UniProt P49760).
T3 construct: purchased Merck Millipore (KinaseProfiler service)
The experiment can be described thus: CLK2 KinaseProfiler radiometric protein kinase assay. To be noted: radiometric, 15 μM ATP, 40 minutes at room temperature; read-out: CLK2 IC50. On the procedure: as §1, §2, §3
CLK2 (h) was diluted in the buffer (20 mM MOPS (3-(N-morpholino)propanesulfonic acid), 1 mM EDTA (ethylendiaminotetraacetic acid), 0.01% Brij-35 (detergent), 5% Glycerol, 0.1% β-mercaptoethanol, 1 mg/mL BSAs) to the concentration of 1.01 mg/mL prior to addition to the reaction mix.
as §4, with “solution of CLK2(h) was added” for “solution of HIPK2(h) was added”, “EDTA, and 20 μM […](p) EDEEE in such” for “EDTA, and 0.33 mg/mL myelin basic protein in such”, “concentration of CLK2(h) was 2.1” for “concentration of HIPK2(h) was 1.4”, “CLK2(h) was 2.1 nM. This” for “HIPK2(h) was 1.4 nM. This”, “cpm/pmol) was 15 μM. After” for “cpm/pmol) was 10 μM. After”

The target of experiment [4] is T4, HIPK1(h) (Homo sapiens, UniProt Q86Z02).
T4 construct: purchased Merck Millipore (KinaseProfiler service)
T4 sequence (Q86Z02 whole entry): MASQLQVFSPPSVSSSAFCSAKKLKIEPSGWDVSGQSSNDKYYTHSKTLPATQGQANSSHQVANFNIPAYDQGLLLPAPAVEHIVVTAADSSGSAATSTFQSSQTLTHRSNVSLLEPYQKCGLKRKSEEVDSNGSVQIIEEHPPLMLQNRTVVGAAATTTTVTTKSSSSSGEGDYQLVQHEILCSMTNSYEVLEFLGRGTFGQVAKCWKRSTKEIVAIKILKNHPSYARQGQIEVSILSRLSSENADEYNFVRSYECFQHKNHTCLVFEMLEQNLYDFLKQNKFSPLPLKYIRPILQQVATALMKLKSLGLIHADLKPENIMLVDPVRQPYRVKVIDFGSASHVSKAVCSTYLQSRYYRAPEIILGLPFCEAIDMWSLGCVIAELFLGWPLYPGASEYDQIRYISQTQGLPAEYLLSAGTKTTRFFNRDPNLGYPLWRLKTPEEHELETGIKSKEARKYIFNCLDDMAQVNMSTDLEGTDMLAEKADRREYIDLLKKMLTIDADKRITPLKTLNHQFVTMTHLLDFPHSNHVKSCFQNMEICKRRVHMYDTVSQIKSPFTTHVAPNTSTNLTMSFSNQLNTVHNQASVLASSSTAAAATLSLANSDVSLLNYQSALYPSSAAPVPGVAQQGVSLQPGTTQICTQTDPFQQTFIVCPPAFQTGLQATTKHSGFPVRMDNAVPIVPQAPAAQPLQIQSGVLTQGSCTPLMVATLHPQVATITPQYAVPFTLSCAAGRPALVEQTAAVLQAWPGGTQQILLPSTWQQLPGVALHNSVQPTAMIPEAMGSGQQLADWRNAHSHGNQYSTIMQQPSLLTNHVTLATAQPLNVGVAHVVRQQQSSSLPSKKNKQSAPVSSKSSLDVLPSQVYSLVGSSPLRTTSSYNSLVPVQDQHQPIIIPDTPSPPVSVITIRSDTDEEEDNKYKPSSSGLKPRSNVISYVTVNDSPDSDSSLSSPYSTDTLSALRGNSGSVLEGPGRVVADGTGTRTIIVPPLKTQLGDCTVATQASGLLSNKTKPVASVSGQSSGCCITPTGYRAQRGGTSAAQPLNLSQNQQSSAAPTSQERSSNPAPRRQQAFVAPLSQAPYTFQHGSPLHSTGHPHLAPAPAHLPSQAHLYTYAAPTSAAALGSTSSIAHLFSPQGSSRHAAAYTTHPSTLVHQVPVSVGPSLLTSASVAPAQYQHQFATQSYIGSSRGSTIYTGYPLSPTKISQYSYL
The experiment can be described thus: HIPK1 KinaseProfiler radiometric protein kinase assay. Conditions: 45 μM ATP, 40 minutes at room temperature. Here is the method:
as §1, §2, §3
HIPK1(h) was diluted in the buffer (20 mM MOPS, 1 mM EDTA, 0.01% Brij-35, 5% Glycerol, 0.1% β-mercaptoethanol, 1 mg/mL BSAs) to the concentration of 1.01 mg/mL prior to addition to the reaction mix.
as §4, with “solution of HIPK1(h) was added” for “solution of HIPK2(h) was added”, “concentration of HIPK1(h) was 4.7” for “concentration of HIPK2(h) was 1.4”, “HIPK1(h) was 4.7 nM. This” for “HIPK2(h) was 1.4 nM. This”, “cpm/pmol) was 45 μM. After” for “cpm/pmol) was 10 μM. After”

Experiment [5] addresses T5, CLK4 (h) (Homo sapiens, UniProt Q9HAZ1).
T5 construct: purchased Merck Millipore (KinaseProfiler service)
The experiment can be described thus: CLK4 KinaseProfiler radiometric protein kinase assay. To be noted: 15 μM ATP, 40 minutes at room temperature. On the procedure:
as §1, §2, §3
CLK4 (h) was diluted in the buffer (20 mM MOPS, 1 mM EDTA, 0.01% Brij-35, 5% Glycerol, 0.1% β-mercaptoethanol, 1 mg/mL BSAs) to the concentration of 1.01 mg/mL prior to addition to the reaction mix.
as §4, with “solution of CLK4(h) was added” for “solution of HIPK2(h) was added”, “EDTA, and 200 μM […](p) EDEEE in such” for “EDTA, and 0.33 mg/mL myelin basic protein in such”, “concentration of CLK4(h) was 140.8” for “concentration of HIPK2(h) was 1.4”, “CLK4(h) was 140.8 nM. This” for “HIPK2(h) was 1.4 nM. This”, “cpm/pmol) was 15 μM. After” for “cpm/pmol) was 10 μM. After”

The target of experiment [6] is T6, FLT3(h) (Homo sapiens, UniProt P36888).
T6 construct: purchased Merck Millipore (KinaseProfiler service)
T6 sequence (P36888 27-993): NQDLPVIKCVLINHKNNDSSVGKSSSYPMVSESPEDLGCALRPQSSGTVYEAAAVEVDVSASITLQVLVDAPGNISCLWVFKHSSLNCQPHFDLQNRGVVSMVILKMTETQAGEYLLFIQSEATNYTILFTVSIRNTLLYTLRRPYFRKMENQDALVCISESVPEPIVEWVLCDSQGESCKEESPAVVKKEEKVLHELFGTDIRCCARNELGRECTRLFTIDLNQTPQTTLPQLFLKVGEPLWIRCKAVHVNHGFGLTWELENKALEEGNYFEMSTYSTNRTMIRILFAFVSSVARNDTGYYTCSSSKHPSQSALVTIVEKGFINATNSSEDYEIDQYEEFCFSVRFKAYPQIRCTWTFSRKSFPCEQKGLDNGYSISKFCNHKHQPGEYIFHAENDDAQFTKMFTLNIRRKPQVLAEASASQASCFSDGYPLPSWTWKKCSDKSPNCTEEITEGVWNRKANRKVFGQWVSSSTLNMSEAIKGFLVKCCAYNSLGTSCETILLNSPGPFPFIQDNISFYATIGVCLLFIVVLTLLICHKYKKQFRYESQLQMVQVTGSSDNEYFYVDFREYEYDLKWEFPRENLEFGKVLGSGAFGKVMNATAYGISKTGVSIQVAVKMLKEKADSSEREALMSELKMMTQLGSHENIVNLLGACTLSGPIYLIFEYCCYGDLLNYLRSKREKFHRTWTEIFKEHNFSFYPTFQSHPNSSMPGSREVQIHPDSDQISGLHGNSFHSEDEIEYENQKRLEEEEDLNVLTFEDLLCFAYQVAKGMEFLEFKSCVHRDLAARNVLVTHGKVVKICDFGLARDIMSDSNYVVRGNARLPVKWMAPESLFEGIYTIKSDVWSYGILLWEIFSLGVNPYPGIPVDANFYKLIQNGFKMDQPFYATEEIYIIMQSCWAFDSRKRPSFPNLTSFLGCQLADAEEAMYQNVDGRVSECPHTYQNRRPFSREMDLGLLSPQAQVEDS
The experiment can be described thus: FLT3 KinaseProfiler radiometric protein kinase assay. Conditions: 200 μM ATP, 40 minutes at room temperature. Here is the method:
as §1, §2, §3
FLT3(h) was diluted in the buffer (20 mM MOPS, 1 mM EDTA, 0.01% Brij-35, 5% Glycerol, 0.1% β-mercaptoethanol, 1 mg/mL BSAs) to the concentration of 1.01 mg/mL prior to addition to the reaction mix.
as §4, with “solution of Flt3(h) was added” for “solution of HIPK2(h) was added”, “EDTA, and 50 μM EAIYAAPFAKKK, in such” for “EDTA, and 0.33 mg/mL myelin basic protein in such”, “concentration of FLT3(h) was 28.3” for “concentration of HIPK2(h) was 1.4”, “FLT3(h) was 28.3 nM. This” for “HIPK2(h) was 1.4 nM. This”, “cpm/pmol) was 200 μM. After” for “cpm/pmol) was 10 μM. After”

Experiment [7] has as its target T7, TRKA(h) (Homo sapiens, UniProt P04629).
T7 construct: purchased Merck Millipore (KinaseProfiler service)
The experiment can be described thus: TRKA KinaseProfiler radiometric protein kinase assay. Conditions: 120 μM ATP, 40 minutes at room temperature. Here is the method:
as §1, §2, §3
TRKA(h) was diluted in the buffer (20 mM MOPS, 1 mM EDTA, 0.01% Brij-35, 5% Glycerol, 0.1% β-mercaptoethanol, 1 mg/mL BSAs) to the concentration of 1.01 mg/mL prior to addition to the reaction mix.
as §5, with “TRKA(h)” for “HIPK3(h)”, “250 μM KKKSPGEYVNIEFG,” for “1.0 mg/mL myelin basic protein”, “28.2” for “6.4”, “120” for “15”

T7 sequence (P04629 33-796): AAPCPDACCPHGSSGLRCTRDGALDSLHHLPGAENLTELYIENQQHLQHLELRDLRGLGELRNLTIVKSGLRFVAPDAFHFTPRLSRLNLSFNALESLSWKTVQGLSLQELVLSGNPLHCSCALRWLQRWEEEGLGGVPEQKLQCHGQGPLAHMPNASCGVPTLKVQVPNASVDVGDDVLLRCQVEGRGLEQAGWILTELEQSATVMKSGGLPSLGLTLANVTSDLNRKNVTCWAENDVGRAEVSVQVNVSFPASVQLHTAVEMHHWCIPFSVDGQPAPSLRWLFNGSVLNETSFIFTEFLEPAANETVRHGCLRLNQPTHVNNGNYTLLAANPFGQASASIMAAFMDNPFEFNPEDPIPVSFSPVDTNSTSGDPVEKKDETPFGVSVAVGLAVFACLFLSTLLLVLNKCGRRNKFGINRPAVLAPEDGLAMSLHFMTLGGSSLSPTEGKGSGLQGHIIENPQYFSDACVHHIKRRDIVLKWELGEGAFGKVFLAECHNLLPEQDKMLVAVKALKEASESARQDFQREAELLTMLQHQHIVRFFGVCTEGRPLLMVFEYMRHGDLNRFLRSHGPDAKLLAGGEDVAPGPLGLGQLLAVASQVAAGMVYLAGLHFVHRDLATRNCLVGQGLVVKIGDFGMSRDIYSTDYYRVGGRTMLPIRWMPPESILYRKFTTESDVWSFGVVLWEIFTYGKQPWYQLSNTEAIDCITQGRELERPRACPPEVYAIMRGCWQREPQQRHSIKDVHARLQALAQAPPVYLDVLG
T3 sequence (P49760 whole entry): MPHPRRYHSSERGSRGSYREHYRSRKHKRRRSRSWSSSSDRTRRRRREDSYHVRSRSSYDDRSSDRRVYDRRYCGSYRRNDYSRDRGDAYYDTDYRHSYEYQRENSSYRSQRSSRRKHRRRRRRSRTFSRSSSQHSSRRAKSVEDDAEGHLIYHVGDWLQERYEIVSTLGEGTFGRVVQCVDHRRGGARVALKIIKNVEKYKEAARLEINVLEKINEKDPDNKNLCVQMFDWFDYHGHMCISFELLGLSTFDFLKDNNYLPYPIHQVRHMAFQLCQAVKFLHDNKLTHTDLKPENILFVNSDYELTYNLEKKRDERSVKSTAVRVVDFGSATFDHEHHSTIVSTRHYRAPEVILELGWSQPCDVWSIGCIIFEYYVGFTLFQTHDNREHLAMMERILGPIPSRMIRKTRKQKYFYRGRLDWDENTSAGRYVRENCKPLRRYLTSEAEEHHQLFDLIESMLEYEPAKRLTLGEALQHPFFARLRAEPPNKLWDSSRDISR
T5 sequence (Q9HAZ1 whole entry): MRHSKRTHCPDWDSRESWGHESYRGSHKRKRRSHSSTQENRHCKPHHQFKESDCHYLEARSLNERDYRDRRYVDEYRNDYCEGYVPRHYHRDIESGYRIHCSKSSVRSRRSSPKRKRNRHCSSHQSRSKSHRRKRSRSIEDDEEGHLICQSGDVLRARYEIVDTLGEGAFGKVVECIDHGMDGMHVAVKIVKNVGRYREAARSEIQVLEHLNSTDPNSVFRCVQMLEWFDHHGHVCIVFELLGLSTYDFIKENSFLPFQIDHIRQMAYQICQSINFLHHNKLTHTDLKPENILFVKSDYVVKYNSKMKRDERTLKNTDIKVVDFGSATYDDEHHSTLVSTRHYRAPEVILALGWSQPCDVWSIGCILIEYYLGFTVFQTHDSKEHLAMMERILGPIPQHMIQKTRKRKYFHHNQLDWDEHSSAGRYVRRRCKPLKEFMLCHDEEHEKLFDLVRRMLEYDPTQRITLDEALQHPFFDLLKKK
T1 sequence (Q9H2X6 whole entry): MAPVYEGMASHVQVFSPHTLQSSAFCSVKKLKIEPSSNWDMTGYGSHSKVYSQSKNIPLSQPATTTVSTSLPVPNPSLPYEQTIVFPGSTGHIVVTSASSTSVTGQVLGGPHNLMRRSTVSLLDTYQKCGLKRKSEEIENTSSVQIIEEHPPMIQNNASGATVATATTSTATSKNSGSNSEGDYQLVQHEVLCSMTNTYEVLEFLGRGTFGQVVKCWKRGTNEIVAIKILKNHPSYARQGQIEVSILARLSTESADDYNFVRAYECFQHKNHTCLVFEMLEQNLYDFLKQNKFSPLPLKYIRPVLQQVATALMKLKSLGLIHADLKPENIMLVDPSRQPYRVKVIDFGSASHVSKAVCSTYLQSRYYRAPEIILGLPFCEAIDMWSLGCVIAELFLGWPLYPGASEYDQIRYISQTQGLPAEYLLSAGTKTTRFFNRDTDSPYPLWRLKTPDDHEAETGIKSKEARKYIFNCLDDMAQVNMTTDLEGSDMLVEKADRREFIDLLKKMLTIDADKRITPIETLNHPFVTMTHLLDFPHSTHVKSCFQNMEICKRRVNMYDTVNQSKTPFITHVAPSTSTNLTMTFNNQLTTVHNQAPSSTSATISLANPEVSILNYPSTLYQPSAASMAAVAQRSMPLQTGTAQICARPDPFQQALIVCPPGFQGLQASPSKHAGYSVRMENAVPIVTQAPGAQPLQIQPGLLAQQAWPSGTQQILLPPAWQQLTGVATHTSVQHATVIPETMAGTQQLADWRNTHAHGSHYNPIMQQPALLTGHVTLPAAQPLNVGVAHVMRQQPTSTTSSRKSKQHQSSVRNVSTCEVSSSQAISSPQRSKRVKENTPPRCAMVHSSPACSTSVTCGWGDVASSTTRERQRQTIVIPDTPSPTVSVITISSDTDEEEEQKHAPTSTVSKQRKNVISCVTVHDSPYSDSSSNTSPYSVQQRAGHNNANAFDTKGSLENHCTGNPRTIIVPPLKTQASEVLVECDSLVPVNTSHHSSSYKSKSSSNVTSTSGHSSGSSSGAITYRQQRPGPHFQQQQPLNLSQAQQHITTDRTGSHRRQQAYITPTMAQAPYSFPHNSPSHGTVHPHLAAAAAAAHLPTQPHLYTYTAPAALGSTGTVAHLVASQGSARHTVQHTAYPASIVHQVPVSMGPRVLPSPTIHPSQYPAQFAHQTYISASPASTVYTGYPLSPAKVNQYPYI

As usually defined, the IC50 is the concentration needed to halve the response being measured. With `Cn1cc(-c2ccc3occ(-c4ccc5ccccc5c4)c3n2)cn1` [Preparative Example 7A], the IC50 in experiment [1] was less than 1 µM; in experiment [2], less than 1 µM; in experiment [3] it was less than 0.1 µM; in experiment [4], less than 1 µM; in experiment [5], less than 0.1 µM.
For `Cc1n[nH]c(C)c1-c1ccc2occ(-c3ccc4ccccc4c3)c2n1` [Preparative Example 7D], the IC50 is less than 1 µM in experiment [1]; less than 5 µM in experiment [2]; less than 5 µM in experiment [3]; less than 5 µM in experiment [4]; less than 5 µM in experiment [5].
On to `c1ccc(-c2coc3ccc(Nc4ccc(N5CCOCC5)cc4)nc23)cc1` [Preparative Example 8B], for which the figures for the IC50 in experiment [3], in experiment [6] and in experiment [7] were less than 1 µM, less than 1 µM and less than 5 µM, respectively.
In the case of `CN1CCN(c2ccc(Nc3ccc4occ(-c5ccccc5)c4n3)cc2)CC1` [Preparative Example 8C], the IC50 in experiment [6], in experiment [7] and in experiment [5] was less than 5 µM each time.
Compound `c1ccc(-c2coc3ccc(Nc4ccncc4)nc23)cc1` [Preparative Example 8D] displayed a 50% inhibitory concentration (IC50) in experiment [6] of less than 5 µM.
As for `c1ccc(Nc2ccc3occ(-c4ccccc4)c3n2)cc1` [Preparative Example 8E], the IC50 in experiment [6], in experiment [7] and in experiment [5] was less than 5 µM in each case.
For `Cc1cc(Nc2cc(-c3ccccc3)nc3ccoc23)sn1` [Preparative Example 17E], the IC50 in experiment [6] and in experiment [7] was less than 5 µM throughout.
